The supplement of paper PMC10307832

Legend:
Assay in all cases: relative viability (nuclei count vs DMSO), 5 days (fraction); higher = more cells survive
Salubrinal + Bortezomib = compound: O=C(/C=C/c1ccccc1)NC(NC(=S)Nc1cccc2cccnc12)C(Cl)(Cl)Cl [Salubrinal] + CC(C)C[C@H](NC(=O)[C@H](Cc1ccccc1)NC(=O)c1cnccn1)B(O)O [Bortezomib] (partner 0.002 µM)
Procedure, shortened: (§1)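 Cells from lung cancer lines were seeded into 1536-well plates and, one day later, dosed by pin tool. Treatments were either a single drug or a fixed dose of an anchor drug with five library-drug doses (not always all listed) in √10 steps. After 5 days, nuclei were stained in a one-step fixation (final 0.05% Triton X-100, 1% formaldehyde, 1 ug/ml Hoechst) and counted on 4× images, and relative viability is the treated-to-vehicle nuclei ratio, as the median of duplicate plates.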

[1] = compound: Cc1ccc2nc(NCCN)c3ncc(C)n3c2c1 + O=C(c1cc(Cc2n[nH]c(=O)c3ccccc23)ccc1F)N1CCN(C(=O)C2CC2)CC1 [Olaparib] (partner 8 µM)
Procedure, shortened: as §1

[2] = compound: Cc1ccc2nc(NCCN)c3ncc(C)n3c2c1 + Cc1nc(NC(=O)N2CCC[C@H]2C(N)=O)sc1-c1ccnc(C(C)(C)C(F)(F)F)c1 [Alpelisib] (partner 2 µM)
Procedure, shortened: as §1

Salubrinal + Linsitinib = compound: O=C(/C=C/c1ccccc1)NC(NC(=S)Nc1cccc2cccnc12)C(Cl)(Cl)Cl [Salubrinal] + C[C@]1(O)C[C@@H](c2nc(-c3ccc4ccc(-c5ccccc5)nc4c3)c3c(N)nccn32)C1 [Linsitinib] (partner 1 µM)
Procedure, shortened: as §1

Cell Line	relative viability (Salubrinal + Bortezomib; first compound 0.08 µM)	relative viability (Salubrinal + Bortezomib; first compound 0.253 µM)	relative viability (Salubrinal + Bortezomib; first compound 0.8 µM)	relative viability (Salubrinal + Bortezomib; first compound 2.53 µM)	relative viability (Salubrinal + Bortezomib; first compound 8 µM)	relative viability ([1]; first compound 0.04 µM)	relative viability ([1]; first compound 0.1265 µM)	relative viability ([1]; first compound 0.4 µM)	relative viability ([1]; first compound 1.265 µM)	relative viability ([1]; first compound 4 µM)	relative viability ([2]; first compound 0.04 µM)	relative viability ([2]; first compound 0.1265 µM)	relative viability ([2]; first compound 0.4 µM)	relative viability ([2]; first compound 1.265 µM)	relative viability ([2]; first compound 4 µM)	relative viability (Salubrinal + Linsitinib; first compound 0.08 µM)	relative viability (Salubrinal + Linsitinib; first compound 0.253 µM)	relative viability (Salubrinal + Linsitinib; first compound 0.8 µM)	relative viability (Salubrinal + Linsitinib; first compound 2.53 µM)	relative viability (Salubrinal + Linsitinib; first compound 8 µM)
LC-2-ad	0.992	0.92	1.16	1	1.02	0.729	0.743	0.71	0.768	0.71	0.953	0.827	0.86	1	0.875	0.932	0.812	0.912	0.817	0.844
SK-LU-1	1	1.07	1.63	1.21	0.941	0.515	0.422	0.513	0.455	0.484	1.11	0.961	1.1	1.01	0.937	1.26	1.19	1.37	1.02	1.16
COR-L 105	0.756	0.829	0.86	0.816	0.604	0.656	0.883	0.665	0.533	0.642	0.977	1.04	1.27	1.13	0.75	1.04	1.03	0.737	0.953	0.776
NCI-H1975	0.419	0.362	0.353	0.344	0.355	0.791	0.81	0.809	0.704	0.682	0.618	0.551	0.677	0.643	0.5	1.1	0.735	1.17	0.988	0.946
Calu-6	1.18	0.856	1.11	1.01	0.918	0.574	0.601	0.6	0.578	0.367	1.05	0.923	1.01	1.04	0.719	0.983	0.842	1.08	0.928	0.992
NCI-H1993	1.09	1.05	1.31	1.01	1.28	1.12	0.962	0.86	0.624	1.06	0.69	0.666	0.649	0.625	0.693	0.757	0.722	0.775	0.805	0.816
RERF-LC-KJ	1.29	0.984	1.24	1.03	1.15	0.995	0.919	1.06	0.801	0.579	0.843	0.769	0.784	0.762	0.81	0.896	0.806	0.931	0.791	0.846
